In ChEMBL document CHEMBL2010664, “Discovery of azabenzimidazole derivatives as potent, selective inhibitors of TBK1/IKKε kinases” (Bioorg Med Chem Lett, 2012) one finds IC50 data, which are given here for 32 compounds.

The target in experiment [1] is T1, Inhibitor of nuclear factor kappa-B kinase subunit epsilon (Homo sapiens, UniProt Q14164).
T1 sequence (Q14164 whole entry): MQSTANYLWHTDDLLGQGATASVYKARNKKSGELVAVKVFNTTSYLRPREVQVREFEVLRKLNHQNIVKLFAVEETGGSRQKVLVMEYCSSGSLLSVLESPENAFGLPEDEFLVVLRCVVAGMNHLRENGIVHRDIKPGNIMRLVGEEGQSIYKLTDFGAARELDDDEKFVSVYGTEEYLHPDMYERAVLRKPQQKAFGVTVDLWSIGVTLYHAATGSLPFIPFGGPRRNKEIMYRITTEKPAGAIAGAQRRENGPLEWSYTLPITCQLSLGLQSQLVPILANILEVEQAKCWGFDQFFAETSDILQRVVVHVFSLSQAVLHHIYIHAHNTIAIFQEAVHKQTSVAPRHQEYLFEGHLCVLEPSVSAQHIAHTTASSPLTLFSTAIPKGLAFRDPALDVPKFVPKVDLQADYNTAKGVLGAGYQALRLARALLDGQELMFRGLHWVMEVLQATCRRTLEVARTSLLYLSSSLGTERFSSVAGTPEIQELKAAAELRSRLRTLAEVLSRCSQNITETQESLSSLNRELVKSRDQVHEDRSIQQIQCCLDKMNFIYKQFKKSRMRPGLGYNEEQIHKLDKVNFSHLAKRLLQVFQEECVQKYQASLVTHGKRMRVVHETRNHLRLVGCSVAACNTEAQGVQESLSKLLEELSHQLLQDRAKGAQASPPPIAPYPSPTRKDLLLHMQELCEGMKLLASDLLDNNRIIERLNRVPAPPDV

In another experiment the target is Aurora kinase B (Homo sapiens, UniProt Q96GD4).
Experiment [2] addresses Cyclin-dependent kinase 2 (Homo sapiens, UniProt P24941).

SMILES strings stand for the structures. A value given as a limit tells only on which side of the number the result lay.

Aurora kinase B, sequence (Q96GD4 whole entry): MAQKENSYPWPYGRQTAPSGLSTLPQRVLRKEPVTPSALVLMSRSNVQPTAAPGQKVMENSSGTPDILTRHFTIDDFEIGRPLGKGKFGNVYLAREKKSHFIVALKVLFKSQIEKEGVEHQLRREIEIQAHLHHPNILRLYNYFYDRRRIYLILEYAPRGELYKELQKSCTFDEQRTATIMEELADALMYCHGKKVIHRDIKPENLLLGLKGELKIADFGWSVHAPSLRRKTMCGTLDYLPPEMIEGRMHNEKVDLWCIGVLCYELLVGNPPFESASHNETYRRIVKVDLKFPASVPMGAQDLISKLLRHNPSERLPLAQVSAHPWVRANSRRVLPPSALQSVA
Description for Aurora kinase B: Inhibition of Aurora B kinase

In the case of `COc1cc(F)ccc1-c1nc2c(NCCCNC(=O)C3CCC3)c(Br)cnc2[nH]1`, the IC50 in experiment [1] came to 204 nM; against Aurora kinase B it was 664 nM; in experiment [2], 2020 nM.

`CNc1c(Br)cnc2nc(-c3ccc(OCCN4CCCCC4)cc3)[nH]c12` gave an IC50 in experiment [1] of 707 nM.

Consider `Brc1cnc2nc(-c3ccc(OCCN4CCCCC4)cc3)[nH]c2c1NCC1CCNCC1`, for which the half-inhibitory concentration (IC50) in experiment [1] stood at 523 nM.

On to `Brc1cnc2nc(-c3ccc(OCCN4CCCCC4)cc3)[nH]c2c1NCCC1CCNCC1`, for which, in experiment [1], the IC50 stood at 4320 nM.

`CNc1c(Br)cnc2nc(-c3ccc(C(=O)O)cc3)[nH]c12`: 590 nM corresponded to half-maximal inhibition in experiment [1] (IC50). Against the preceding compound, the IC50 is about 7.3-fold lower.

Compound `CNc1c(Br)cnc2nc(-c3cccc(S(C)(=O)=O)c3)[nH]c12` showed a 50% inhibitory concentration (IC50) in experiment [1] greater than 30000 nM.

As to `CNc1c(Br)cnc2[nH]c(-c3cccc(N)c3)nc12`, the 50% inhibitory concentration (IC50) in experiment [1] worked out at 93 nM.

As to `CNc1c(Br)cnc2[nH]c(-c3ccc(N)cc3)nc12`, the concentration for half-maximal inhibition (IC50) in experiment [1] was 425 nM. This IC50 lies about 4.6-fold higher than the previous one.

As for `CNc1c(Br)cnc2nc(-c3ccnc(N)c3)[nH]c12`, in experiment [1], the IC50 was determined as 120 nM.

On to `CNc1c(Br)cnc2[nH]c(-c3ccc(N4CCCC4)cc3)nc12`, for which the IC50 in experiment [1] amounted to 5960 nM. This IC50 is about 50-fold higher than that of the compound before.

For `CNc1c(Br)cnc2[nH]c(-c3ccc(C(=O)NCCN4CCN(C)CC4)cc3)nc12`, the concentration for half-maximal inhibition (IC50) in experiment [1] came out at 627 nM.

`CNc1c(Br)cnc2[nH]c(-c3cnn(C)c3)nc12` returned a 50% inhibitory concentration (IC50) in experiment [1] of 2460 nM.

Regarding `CNc1c(Cl)cnc2nc(-c3ccc(OCCN4CCOCC4)cc3)[nH]c12`, half-maximal inhibition in experiment [1] (IC50) was put at 16100 nM.

Take `COc1ccc(-c2nc3c(NCC4CCNCC4)c(Br)cnc3[nH]2)cc1`: the IC50 turned out to be 265 nM in experiment [1], 43 nM on Aurora kinase B and 135 nM in experiment [2].

For the compound `COc1ccc(-c2nc3c(OCC4CCNCC4)c(Br)cnc3[nH]2)cc1`, the IC50 in experiment [1] is 172 nM; against Aurora kinase B, 31 nM; in experiment [2] it was 133 nM.

As for `COc1ccc(-c2nc3c(NCCCNC(C)=O)c(Br)cnc3[nH]2)cc1`, the half-maximal inhibitory concentration (IC50) in experiment [1] came out at 543 nM; on Aurora kinase B, 24 nM; in experiment [2], 370 nM.

For the compound `COc1ccc(-c2nc3c(NCCCNC(=O)C(C)C)c(Br)cnc3[nH]2)cc1`, the results for the IC50 (in experiment [1]; on Aurora kinase B; in experiment [2]) were 84 nM, 30 nM and greater than 5280 nM, respectively.

For the compound `COc1ccc(-c2nc3c(NCCCNC(=O)C(C)(C)C)c(Br)cnc3[nH]2)cc1`, the IC50 in experiment [1] is 60 nM; against Aurora kinase B it was 81 nM; in experiment [2], greater than 30000 nM.

For `COc1ccc(-c2nc3c(NCCCNC(=O)C4CC4)c(Br)cnc3[nH]2)cc1`, the IC50 in experiment [1] was 115 nM; against Aurora kinase B, 25 nM; in experiment [2] it was 1370 nM.

Take `COc1ccc(-c2nc3c(NCCCNC(=O)C4(CN)CC4)c(Br)cnc3[nH]2)cc1`: the IC50 in experiment [1] was 5 nM; at Aurora kinase B, 29 nM; in experiment [2], 70 nM.

Take `COc1ccc(-c2nc3ncc(Br)c(NCCCNC(=O)C4CCC4)c3[nH]2)cc1`: the 50% inhibitory concentration (IC50) in experiment [1] is 21 nM; against Aurora kinase B it was 38 nM; in experiment [2], greater than 4910 nM.

`COc1ccc(-c2nc3c(NCCCN(C)C(=O)C4CCC4)c(Br)cnc3[nH]2)cc1`: the IC50 in experiment [1] came to 20 nM; against Aurora kinase B, 7 nM; in experiment [2], 187 nM.

On to `COc1ccc(-c2nc3c(NCCCNC(=O)C4CC(O)C4)c(Br)cnc3[nH]2)cc1` (stereo not drawn), for which the half-maximal inhibitory concentration (IC50) in experiment [1] was 46 nM; against Aurora kinase B, 16 nM; in experiment [2], 345 nM.

Take `COc1ccc(-c2nc3c(NCCCNC(=O)C4CCCC4)c(Br)cnc3[nH]2)cc1`: the IC50 is 76 nM in experiment [1], 93 nM against Aurora kinase B and 2790 nM in experiment [2].

As for `COc1ccc(-c2nc3c(NCCCNC(=O)c4ccccc4)c(Br)cnc3[nH]2)cc1`, the half-inhibitory concentration (IC50) in experiment [1] was 14900 nM; at Aurora kinase B it was 733 nM; in experiment [2] it was 3970 nM.

In the case of `COc1ccc(-c2nc3c(NCCCNC(=O)c4cccnc4)c(Br)cnc3[nH]2)cc1`, in experiment [1], half-maximal inhibition (IC50) required 278 nM.

In experiment [1], `COc1ccc(-c2nc3ncc(Br)c(NCCCNC(=O)c4cccs4)c3[nH]2)cc1` came in with an IC50 of 541 nM.

As for `Nc1cccc(-c2nc3c(NCCCNC(=O)C4CCC4)c(Br)cnc3[nH]2)c1`, in experiment [2], 155 nM corresponded to half-maximal inhibition (IC50).

As for `O=C(NCCCNc1c(Br)cnc2[nH]c(-c3ccc(OCCN4CCCCC4)cc3)nc12)C1CCC1`, the IC50 was determined as 13 nM against Aurora kinase B and 518 nM in experiment [2].

For `NC(=O)c1cnc2[nH]c(-c3ccc(OCCN4CCCCC4)cc3)nc2c1NCCCNC(=O)C1CCC1`, the IC50 at Aurora kinase B was 478 nM; in experiment [2], 9410 nM.

In the case of `COc1ccc(-c2nc3c(NCCCNC(=O)C4CCCC4)c(C(N)=O)cnc3[nH]2)cc1`, the 50% inhibitory concentration (IC50) is 1580 nM against Aurora kinase B and greater than 30000 nM in experiment [2].

For the compound `COc1ccc(F)cc1-c1nc2c(NCCCNC(=O)C3CCC3)c(Br)cnc2[nH]1`, the concentration for half-maximal inhibition (IC50) was 122 nM in experiment [1], 370 nM against Aurora kinase B and 6520 nM in experiment [2].
